Assay results published in patent publication US20220332799A1, “HERV INHIBITORS FOR USE IN TREATING TAUOPATHIES” (Deutsches Zentrum Für Neurodegenerative Erkrankungen E.V. …, priority 2019, published 2022).
“Also recorded” adds a separate entry of the source. Like-named read-outs stand apart in the source and are kept apart here.

Legend:
N2a NM-GFP^sol cells [1] = format: cell-based, mouse; details: for percentage of recipient cells with NM-GFP aggregates: compounds added to cocultures 1 h after co-seeding, three concentrations, 12 h
HERV-K = details: Tyagi et al., Retrovirology (2017), 14:21; cited from earlier work
[2] = test system: HEK Tau-FusionRed^sol cells expressing murine XPR1-HA; test: Tau aggregate induction in recipient cells by EVs from N2a s2E Tau-GFP^CBD donor cells; format: cell-based, human; details: EVs from treated donors; recipients cultured in drug-containing medium, 3 d
Description: To examine this effect on Tau aggregate spreading, an N2a s2E cell clone stably propagating aggregated Tau-GFP^CBD was produced (FIG. 11a). […]. Cells and EVs were analyzed for the presence of aggregated Tau-GFP. Pronase-resistant Tau-GFP was found in both cell lysate and EVs (FIG. 2q). To inhibit MuERV gene product maturation, donor cells were treated with Amprenavir for three days. Donor cells and donor cell-derived EVs were subsequently exposed for three days to recipient HEK cells expressing soluble Tau-FusionRed and the murine XPR1 receptor variant required for MuERV Env interaction. Due to this long incubation time, the coculture and EV induction assays were performed in the presence of Amprenavir (FIG. 11b). […]
(§1) Recipient cells were cultured on CellCarrier-96 plates or 384 black microplates (PerkinElmer) at appropriate cell numbers for 1 h, and then treated with 5-10 μl of prepared samples (isolated EVs or recombinant NM fibrils). […] On average, a total of 3-4×10^4 cells per well and at least 3 wells per treatment were analyzed.
(§2) The treatment of cells with Amprenavir (10 μM; Santa Cruz) and DMSO was performed for 72 h in EV-depleted medium in T175 flasks. Afterwards, the total numbers of viable cells and the viability upon drug treatment were determined using the Vi-VELL™ XR Cell Viability Analyzer (Beckman Coulter). […]

N2a NM-GFP^sol cells [3] = test: NM-GFP aggregate induction in recipient cells by EVs from donor clone N2a NM-HA^agg s2E; format: cell-based, mouse; details: EVs isolated from donors treated with 10 μM for 3 days; no drug on recipients, 16 h
Description: To prepare EV-depleted medium, FCS was ultracentrifuged at 100,000×g for 20 h at 4° C. Medium supplemented with the EV-depleted FCS and antibiotics was subsequently filtered through […] and a 0.1 μM filter-sterilization devices (Millipore). For EV isolation, 2-4×10^6 cells were seeded in T175 flasks in 35 ml EV-depleted medium to reach confluence after 3 days. Cells and cell debris were pelleted by differential centrifugation (300×g, 10 min; 2,000×g, 20 min; 16,000×g, 30 min, 4° C.). The remaining supernatant (conditioned medium) was subjected to ultracentrifugation at 100,000×g for 1 h at 4° C. using rotors Ti45 or SW32Ti (Beckman Coulter). The pellet was rinsed in PBS and spun again using rotor SW55Ti at 100,000×g for 1 h at 4° C.
as §1, §2

| Compound | NM aggregate induction in recipient cells cocultured with pretreated donors (N2a NM-GFP^sol cells [1]; s2E P1 donors pretreated, Aza 200 nM or Dec 100 nM, vs DMSO) | effectiveness against HERV-K (HERV-K) | Tau-FusionRed aggregate induction by EVs [2] | percentage of recipient cells with NM-GFP aggregates (N2a NM-GFP^sol cells [1]; vs DMSO) | percentage of recipient cells with NM-GFP aggregates (N2a NM-GFP^sol cells [1]; vs DMSO, listed as amprenavir) | intercellular aggregate induction during coculture (N2a NM-GFP^sol cells [1]; donor cells pre-treated with 10 μM for 3 days, coculture in the absence of drug, 16 h) | EV-mediated aggregate induction in recipient cells (N2a NM-GFP^sol cells [3]) |
| --- | --- | --- | --- | --- | --- | --- | --- |
| Nc1ncn([C@H]2C[C@H](O)[C@@H](CO)O2)c(=O)n1 [Decitabine, 5-aza-2′-deoxycytidine] | significantly increased NM aggregate induction in recipient cells | – | – | – | – | – | – |
| CC(C)CN(C[C@@H](O)[C@H](Cc1ccccc1)NC(=O)O[C@H]1CCOC1)S(=O)(=O)c1ccc(N)cc1 [Amprenavir] | – | effective against HERV-K | also decreased Tau-FusionRed aggregate induction in murine XPR1 expressing recipient cells | reduce aggregate induction; also recorded: observed only when donor cells were cotreated | reduced the percentage of recipient cells with NM-GFP aggregates | significantly inhibited intercellular aggregate induction during coculture | basically abolished EV-mediated aggregate induction in recipient cells |
